Measured values reported in ChEMBL document CHEMBL1149408, “A QSAR model for in silico screening of MAO-A inhibitors. Prediction, synthesis, and biological assay of novel coumarins” (J Med Chem, 2006).
pIC50: −log10 of the molar value.

Each compound was assayed against Amine oxidase [flavin-containing] A (Rattus norvegicus) (UniProt P21396) (assay: Inhibition of MAO-A activity).
Sequence of Amine oxidase [flavin-containing] A (Rattus norvegicus) (P21396 whole entry, looked up): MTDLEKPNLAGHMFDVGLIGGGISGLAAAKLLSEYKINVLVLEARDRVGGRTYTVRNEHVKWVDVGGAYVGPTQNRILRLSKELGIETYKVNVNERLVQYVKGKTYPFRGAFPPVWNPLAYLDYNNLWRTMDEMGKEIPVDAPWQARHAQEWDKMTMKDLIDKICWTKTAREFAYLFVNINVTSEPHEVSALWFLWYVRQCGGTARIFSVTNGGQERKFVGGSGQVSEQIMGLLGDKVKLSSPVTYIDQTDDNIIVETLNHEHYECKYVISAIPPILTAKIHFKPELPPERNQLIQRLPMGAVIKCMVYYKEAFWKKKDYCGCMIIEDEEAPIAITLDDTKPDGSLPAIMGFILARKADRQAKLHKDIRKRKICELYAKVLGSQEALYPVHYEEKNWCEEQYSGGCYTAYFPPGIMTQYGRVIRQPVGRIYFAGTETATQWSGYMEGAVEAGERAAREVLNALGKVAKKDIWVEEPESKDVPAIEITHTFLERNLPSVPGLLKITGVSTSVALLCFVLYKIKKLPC

Q: `COc1cc(OC2CCCCC2=O)cc2oc(=O)cc(C)c12` (stereo not given) was tested. Which pIC50 did it give?
A: 4.67

Q: With `Cc1cc(=O)oc2cc(OC3CCCC3=O)ccc12` (stereo not given) as the compound, how does the pIC50 read?
A: 7.40

Q: With `COc1c(OC2CCCCC2=O)ccc2c(C)cc(=O)oc12` (stereo not given) as the compound, how does the pIC50 read?
A: 4.95

Q: How did the pIC50 turn out when `CCN(CC)CCCOc1c2occc2cc2ccc(=O)oc12` was run?
A: < 3.70

Q: How did the pIC50 turn out when `Cc1coc2cc3oc(=O)c(NC(=O)CN)cc3cc12` was run?
A: 4.91

Q: With `COc1c2oc(=O)c(N)cc2cc2c(C)coc12` as the compound, how does the pIC50 read?
A: 4.66

Q: With `COc1c2occc2cc2ccc(=O)oc12` [METHOXSALEN] as the compound, how does the pIC50 read?
A: 4.07

Q: How did the pIC50 turn out when `Cc1cc(=O)oc2cc(OC3CCCCC3=O)ccc12` (stereo not given) was run?
A: 4.37

Q: With `COc1cc(OC2CCCCC2=O)c2c(C)cc(=O)oc2c1` (stereo not given) as the compound, how does the pIC50 read?
A: < 3.70

Q: `Cc1cc(=O)oc2cc3oc4ccccc4c3cc12` was tested. Which pIC50 did it give?
A: 5.14

Q: `COc1c(OCC(C)=O)ccc2cc(NC(C)=O)c(=O)oc12` was tested. Which pIC50 did it give?
A: 5.19

Q: With `COc1c(O)ccc2cc(N)c(=O)oc12` as the compound, how does the pIC50 read?
A: < 3.70

Q: How did the pIC50 turn out when `NCCCOc1c2occc2cc2ccc(=O)oc12` was run?
A: 5.60

Q: How did the pIC50 turn out when `Cc1cc(=O)oc2cc3oc4c(c3cc12)CCCC4` was run?
A: 4.19

Q: How did the pIC50 turn out when `Cc1cc(=O)oc2cc3oc4c(c3cc12)CCC4` was run?
A: 4.92
